Source: US20070155803A1, “Protease inhibitors” (ProZymex A/S, priority 2003, published 2007)
pIC50: −log10 of the molar value. Square brackets hold non-standard residues; d marks the D form. Peptide text beside a SMILES is read from it. Phe(3-F) = N[C@@H](Cc1cccc(F)c1)C(=O)O; hPhe = N[C@@H](CCc1ccccc1)C(=O)O; Abu = CC[C@H](N)C(=O)O; azaGly = NNC(=O)O

Experiments:
[1] = biological target: T1, CYP3A4 (Homo sapiens, UniProt P08684); assay: CYP3A4 assay (Vivid CYP3A4 Red Screening Kit); format: in vitro ADME; settings: read-out: Metabolism: CYP enzymes (20 μM cutoff or IC50) CYP3A4
T1 construct: purchased PanVera Vivid CYP3A4 Red Screening Kit
T1 sequence (P08684 whole entry): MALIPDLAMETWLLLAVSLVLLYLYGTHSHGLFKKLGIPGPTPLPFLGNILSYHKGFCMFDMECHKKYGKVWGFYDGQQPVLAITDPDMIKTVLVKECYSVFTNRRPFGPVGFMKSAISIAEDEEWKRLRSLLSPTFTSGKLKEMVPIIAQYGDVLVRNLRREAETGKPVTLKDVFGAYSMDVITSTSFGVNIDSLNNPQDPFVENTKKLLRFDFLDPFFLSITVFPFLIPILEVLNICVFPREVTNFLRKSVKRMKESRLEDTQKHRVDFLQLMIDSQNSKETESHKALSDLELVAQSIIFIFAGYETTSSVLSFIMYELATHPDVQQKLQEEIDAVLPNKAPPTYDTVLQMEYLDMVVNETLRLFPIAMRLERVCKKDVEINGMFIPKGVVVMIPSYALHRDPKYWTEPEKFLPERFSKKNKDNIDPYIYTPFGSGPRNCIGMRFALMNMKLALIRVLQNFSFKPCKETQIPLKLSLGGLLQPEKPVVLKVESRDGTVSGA
Description: (§1) Tubes thawed on ice. 2× reaction buffer dispensed (room temperature) in two eppendorf tubes (for Mix A and Mix B).
(§2) Controls or compounds of the invention: Diluted to a concentration of 50 μM. Positive control compound: α-naphthoflavone.
(§3) Negative controls: DMSO and H2O.
(§4) Mix A: 485 μL reaction buffer, 10 μL regeneration system, 5 μL Baculosome reagent. Mixed gently and placed on ice.
(§5) Mix B: 88.5 μL reaction buffer, 1.5 μL substrate, 10 μL 10 mM NADP^+.
(§6) In a 96-well plate (Costar c-3904), 40 μL of 50 μM sample dispensed. 50 μl Mix A added. Incubated 20 min. at rt. Then, 10 μl of Mix B added. Fluorescence determined (Molecular Devices, SPECTRAmax Gemini EM): Ex: 409 nm, Em: 460 nm, at 37° C. for 20 min. (Automix: 5 s, top read.).
(§7) Following the procedure for CYP1A2, using the appropriate kits below, the effect of a compound of the invention on the other CYP enzymes was determined:
Vivid® CYP3A4 Red Screening Kit from PanVera.

[2] = biological target: T2, Aspergillus DPP-IV (UniProt Q2UH35); assay: Aspergillus DPP-IV assay; format: biochemical
T2 construct: Aspergillus DPP-IV (Enzyme System Products, SPE01)
T2 sequence (Q2UH35 1-771): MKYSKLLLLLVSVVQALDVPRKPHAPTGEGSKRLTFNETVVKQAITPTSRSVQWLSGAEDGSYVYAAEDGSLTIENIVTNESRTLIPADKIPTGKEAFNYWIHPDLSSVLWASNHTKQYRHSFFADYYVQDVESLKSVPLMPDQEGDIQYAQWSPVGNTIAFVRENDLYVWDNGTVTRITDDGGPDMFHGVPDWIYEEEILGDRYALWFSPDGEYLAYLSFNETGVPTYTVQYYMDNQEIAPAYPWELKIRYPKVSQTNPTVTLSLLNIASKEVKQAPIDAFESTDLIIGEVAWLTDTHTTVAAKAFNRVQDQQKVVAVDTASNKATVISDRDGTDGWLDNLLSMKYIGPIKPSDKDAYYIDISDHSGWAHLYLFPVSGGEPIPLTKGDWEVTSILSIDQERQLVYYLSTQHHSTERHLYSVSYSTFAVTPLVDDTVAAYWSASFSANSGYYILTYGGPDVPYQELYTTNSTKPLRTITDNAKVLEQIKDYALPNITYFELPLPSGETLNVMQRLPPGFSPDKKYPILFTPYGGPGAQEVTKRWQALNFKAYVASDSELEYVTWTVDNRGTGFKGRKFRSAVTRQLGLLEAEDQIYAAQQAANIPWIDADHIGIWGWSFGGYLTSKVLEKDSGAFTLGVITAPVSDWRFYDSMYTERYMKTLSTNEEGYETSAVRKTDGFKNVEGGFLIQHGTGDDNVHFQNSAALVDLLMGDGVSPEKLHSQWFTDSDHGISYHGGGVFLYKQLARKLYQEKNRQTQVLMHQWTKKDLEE
Description: Using this assay, the selectivity of a compound of the invention for hDPP-I over Aspergillus DPP-IV was determined, using a fluorogenic substrate.
Aspergillus DPP-IV (Enzyme System Products, SPE01; 5 mU dissolved in 25 μL assay buffer, giving a stock with a concentration of a 0.2 mU/μL). Prior to running experiment, 5 μL of enzyme stock solution was diluted to 0.004 mU/μL with 245 μL buffer.
Gly-Pro-AFC*TFA (Enzyme System Products AF039; 10 mg) was dissolved in 1 mL DMSO, giving a 20 mM solution. Diluted further in buffer to. 1 mM.
The assay was performed in 96-well plates. 60 μL assay buffer was added to the well followed-by 10 μL 1% DMSO in assay buffer (control) or a compound of the invention (100 μM, corresponding to 10 μM in the assay). Incubated at 37° C., then 10 μL enzyme (corresponding to 0.04 mU in assay) was added, followed by 10 μL substrate (100 μM in the assay). The excitation wavelength was 400 nm, and the emission was measured at 505 nm for 10-20 minutes at 30° C. Each measurement was made in duplicate. In the software (SOFTmax Pro) used for data collection from the fluorometer (Molecular Devices: Gemini XS), it was ensured that the measured slopes were linear (R^2>0.99). Data were exported to GraphPad Prism and nonlinear regression was performed using the option Sigmoidal dose-response (variable slope).

[3] = biological target: T3, CYP2D6 (Homo sapiens, UniProt P10635); assay: CYP2D6 assay (Vivid CYP2D6 Cyan Screening Kit); format: in vitro ADME; settings: 20 μM cutoff; read-out: Metabolism: CYP enzymes (20 μM cutoff or IC50) CYP2D6
T3 construct: purchased PanVera Vivid CYP2D6 Cyan Screening Kit
T3 sequence (P10635 whole entry): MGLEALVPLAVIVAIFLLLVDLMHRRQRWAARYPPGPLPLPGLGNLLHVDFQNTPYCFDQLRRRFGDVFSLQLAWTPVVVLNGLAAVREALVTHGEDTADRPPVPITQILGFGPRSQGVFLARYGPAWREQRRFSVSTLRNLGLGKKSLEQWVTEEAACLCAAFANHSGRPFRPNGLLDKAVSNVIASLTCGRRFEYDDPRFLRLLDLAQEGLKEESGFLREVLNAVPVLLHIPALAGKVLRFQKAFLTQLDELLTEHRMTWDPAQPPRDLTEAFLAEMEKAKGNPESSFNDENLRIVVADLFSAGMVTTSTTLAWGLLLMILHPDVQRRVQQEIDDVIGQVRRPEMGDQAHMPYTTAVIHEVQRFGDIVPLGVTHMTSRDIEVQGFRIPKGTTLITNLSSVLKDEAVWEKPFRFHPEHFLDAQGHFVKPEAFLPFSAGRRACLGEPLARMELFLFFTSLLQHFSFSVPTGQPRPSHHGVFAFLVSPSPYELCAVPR
Description: as §1, §2, §3, §4, §5, §6, §7
Vivid® CYP2D6 Cyan Screening Kit from PanVera.

[4] = biological target: T4, Human neutrophil elastase (Homo sapiens, UniProt P08246); assay: Human neutrophil elastase assay; format: biochemical
T4 construct: purchased Calbiochem 324681
T4 sequence (P08246 30-267): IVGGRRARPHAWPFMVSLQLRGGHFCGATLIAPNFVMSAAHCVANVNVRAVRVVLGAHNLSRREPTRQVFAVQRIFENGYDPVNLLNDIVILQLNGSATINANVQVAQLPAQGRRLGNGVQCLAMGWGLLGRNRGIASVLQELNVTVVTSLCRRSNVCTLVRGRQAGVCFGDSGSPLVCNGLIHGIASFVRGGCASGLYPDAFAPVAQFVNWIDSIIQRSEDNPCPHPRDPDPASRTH
Description: Human Neutrophil Elastase Assay
Using this assay, the selectivity of a compound of the invention for hDPP-I over human neutrophil elastase was determined, using a fluorogenic substrate.
Buffer containing 100 mM Tris/HCl pH 7.5 (25° C.), and 500 mM NaCl.
Human neutrophil elastase (Calbiochem Cat # 324681, 50 ng/µL stock) was reconstituted in 50 mM sodium acetate pH 5.5 and 200 mM NaCl, then stored at −20° C. Diluted to 1 ng/μL in buffer just prior to experiment.
MeOSuc-Ala-Ala-Pro-Val-AMC (Calbiochem Cat # 324740) was dissolved in buffer to 4 mM (398 μL/mg) just prior to experiment. Km was determined to be 560 μM.
The assay was performed in 96-well plates. 80 μL assay buffer was added to the well followed by 10 μL enzyme (1 ng/μL). Incubated for 10 min. at 37° C., then 10 μL substrate was added, and subsequently a compound of the invention (10 μM in the assay) The excitation wavelength was 380 nm, and the emission was measured at 460 nm for 10-20 minutes at 37° C. Each measurement was made in duplicate. In the software (SOFTmax Pro) used for data,collection from the fluorometer (Molecular Devices: Gemini XS), it was ensured that the measured slopes were linear (R^2>0.99). Data was exported to GraphPad Prism and nonlinear regression was performed using the option sigmoidal dose-response (variable slope).

Q: With `CC[C@H](N)C(=O)NNC(=O)N[C@@H](CCc1ccccc1)C(=O)N[C@@H](Cc1cccc(F)c1)C(N)=O` [Example 11, 1-(2S-2-Aminobutanoyl)-4-[2S-N-[2S-3-(m-fluorophenyl)propan-2-yl-amide]-4-phenylbutan-2-yl-amide]semicarbazide] (H-[Abu][azaGly][hPhe][Phe(3-F)]-NH2) as the compound, how does the pIC50 [1] read?
A: Its pIC50 is 6.22.

Q: What about the “Inhibition of DPP-IV (in words)” value [2] of the same compound?
A: The value was “does not inhibit”.

Q: And the pIC50 ([2]; Aspergillus DPP-IV, 10 μM cutoff, read-out: Secondary enzymatic screening (10 μM cutoff or IC50) DPP-IV)?
A: The pIC50 was under 5.00.

Q: What about the pIC50 [3] of the same compound?
A: Its pIC50 is under 4.70.

Q: What about the “Inhibition of neutrophil elastase (in words)” value [4] of the same compound?
A: Its value is “does not inhibit”.

Q: What about the pIC50 ([4]; human neutrophil elastase, 10 μM cutoff, read-out: Secondary enzymatic screening (10 μM cutoff or IC50) Neutrophil elastase) of the same compound?
A: Its pIC50 is under 5.00.
